ChEMBL document CHEMBL2375212, “Synthesis and evaluation of novel marine bromopyrrole alkaloid-based hybrids as anticancer agents” (Eur J Med Chem, 2013)
pIC50: −log10 of the molar value. Converted amounts (≈) assume the structure as drawn.

Tests used:
[1] = Cytotoxicity against human KB403 cells compound treated for 6 hrs measured 48 hrs post washout by MTT assay; format: functional, cell-based
PA-1 = assay: Cytotoxicity against human PA1 cells compound treated for 6 hrs measured 48 hrs post washout by MTT assay; format: functional, cell-based
Caco-2 = assay: Cytotoxicity against human Caco2 cells compound treated for 6 hrs measured 48 hrs post washout by MTT assay; format: functional, cell-based
WRL68 = assay: Cytotoxicity against human WRL68 cells compound treated for 6 hrs measured 48 hrs post washout by MTT assay; format: functional, cell-based
MCF7 [2] = assay: Cytotoxicity against human MCF7 cells compound treated for 6 hrs measured 48 hrs post washout by MTT assay; format: functional, cell-based
HepG2 = assay: Cytotoxicity against human HepG2 cells by MTT assay; format: functional, cell-based
[3] = molecular target: Dual specificity mitogen-activated protein kinase kinase 1 (Homo sapiens, UniProt Q02750); assay: Inhibition of MEK1 (unknown origin)
COLO 205 = assay: Cytotoxicity against human COLO205 cells by MTT assay; format: functional, cell-based
MCF7 [4] = assay: Cytotoxicity against human MCF7 cells by MTT assay; format: functional, cell-based
P388 = assay: Cytotoxicity against mouse P388 cells by MTT assay; format: functional; conditions: read-out: ED50 (the source's name)
[5] = Cytotoxicity against mouse SVEC cells by MTT assay; format: functional, cell-based

Dual specificity mitogen-activated protein kinase kinase 1, sequence (Q02750 whole entry): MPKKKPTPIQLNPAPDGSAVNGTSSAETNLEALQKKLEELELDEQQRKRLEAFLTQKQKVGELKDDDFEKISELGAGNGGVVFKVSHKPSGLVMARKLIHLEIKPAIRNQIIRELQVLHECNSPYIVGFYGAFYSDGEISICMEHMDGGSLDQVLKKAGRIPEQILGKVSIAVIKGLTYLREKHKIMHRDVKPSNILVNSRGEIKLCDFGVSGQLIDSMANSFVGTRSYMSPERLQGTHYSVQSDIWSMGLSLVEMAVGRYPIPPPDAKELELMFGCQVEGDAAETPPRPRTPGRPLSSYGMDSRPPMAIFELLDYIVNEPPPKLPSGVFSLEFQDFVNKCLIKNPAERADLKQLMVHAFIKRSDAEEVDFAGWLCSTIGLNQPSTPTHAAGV

| pIC50 [3] | SMILES | pIC50 [1] | pIC50 (PA-1) | pIC50 (Caco-2) | pIC50 (WRL68) | pIC50 (MCF7 [2]) | IC50 (HepG2) [µg/mL] | pIC50 (COLO 205) | pIC50 (HepG2) | IC50 (MCF7 [4]) [µg/mL] | EC50 (P388) [µg/mL] | pIC50 [5] |
| --- | --- | --- | --- | --- | --- | --- | --- | --- | --- | --- | --- | --- |
|  | CC(=O)O[C@H]1C(=O)[C@@]2(C)[C@H]([C@H](OC(=O)c3ccccc3)[C@]3(O)C[C@H](OC(=O)[C@H](O)[C@@H](NC(=O)c4ccccc4)c4ccccc4)C(C)=C1C3(C)C)[C@]1(OC(C)=O)CO[C@@H]1C[C@@H]2O [PACLITAXEL] | 9.00 | 8.10 |  |  |  |  |  |  |  |  |  |
|  | Oc1ccccc1-c1cc(-c2cc(Br)c(Br)[nH]2)on1 | 4.79 | ≤ 4.00 | ≤ 4.00 | ≤ 4.00 | ≤ 4.00 |  |  |  |  |  |  |
|  | COC(=O)C(NCC(=O)c1cc(Br)c(Br)[nH]1)C(C)C (centres undefined) |  |  |  |  |  | 15.3 |  |  |  |  |  |
|  | COc1ccc(C(=O)/C=C/c2cc(Br)c(Br)n2C)c(OC)c1 | ≤ 4.00 | 6.28 | ≤ 4.00 | 6.19 | 7.10 |  |  |  |  |  |  |
|  | O=C(/C=C/c1cc(Br)c(Br)[nH]1)c1ccc[nH]1 | ≤ 4.00 | 6.30 | ≤ 4.00 | ≤ 4.00 | 7.14 |  |  |  |  |  |  |
|  | Brc1cc(-c2cc(-c3ccc[nH]3)no2)[nH]c1Br | 5.32 | ≤ 4.00 | ≤ 4.00 | ≤ 4.00 | ≤ 4.00 |  |  |  |  |  |  |
|  | COc1ccc(OC)c(C(=O)/C=C/c2cc(Br)c(Br)n2C)c1 | ≤ 4.00 | 6.10 | ≤ 4.00 | 5.49 | 6.19 |  |  |  |  |  |  |
|  | Cn1c(/C=C/C(=O)c2ccccc2)cc(Br)c1Br | ≤ 4.00 | ≤ 4.00 | ≤ 4.00 | ≤ 4.00 | 4.45 |  |  |  |  |  |  |
|  | Cn1c(/C=C/C(=O)c2cccc(O)c2)cc(Br)c1Br | ≤ 4.00 | ≤ 4.00 | ≤ 4.00 | ≤ 4.00 | 4.89 |  |  |  |  |  |  |
|  | Cn1c(-c2cc(=O)c3ccccc3o2)cc(Br)c1Br | 6.17 | 6.22 | ≤ 4.00 | ≤ 4.00 | ≤ 4.00 |  |  |  |  |  |  |
|  | Cn1c(/C=C/C(=O)c2ccc[nH]2)cc(Br)c1Br | 6.22 | 6.14 | ≤ 4.00 | 5.68 | 6.35 |  |  |  |  |  |  |
|  | Cn1c(-c2cc(-c3ccc[nH]3)no2)cc(Br)c1Br | 5.51 | ≤ 4.00 | ≤ 4.00 | ≤ 4.00 | ≤ 4.00 |  |  |  |  |  |  |
|  | COc1ccc(C(=O)/C=C/c2cc(Br)c(Br)[nH]2)c(OC)c1 | ≤ 4.00 | 6.49 | ≤ 4.00 | 5.04 | 7.52 |  |  |  |  |  |  |
| 8.22 | Nc1nc(C2CCNC(=O)c3[nH]c(Br)c(Br)c32)c[nH]1 (centres undefined) |  |  |  |  |  |  |  |  |  |  |  |
|  | Cn1c(/C=C/C(=O)c2cccc(N)c2)cc(Br)c1Br | ≤ 4.00 | ≤ 4.00 | ≤ 4.00 | ≤ 4.00 | 4.91 |  |  |  |  |  |  |
|  | c1ccc(-c2cc(COc3ccccc3-c3nc4ccccc4s3)on2)cc1 |  |  |  |  |  |  | 4.85 |  |  |  |  |

| pIC50 [3] | SMILES | pIC50 [1] | pIC50 (PA-1) | pIC50 (Caco-2) | pIC50 (WRL68) | pIC50 (MCF7 [2]) | IC50 (HepG2) [µg/mL] | pIC50 (COLO 205) | pIC50 (HepG2) | IC50 (MCF7 [4]) [µg/mL] | EC50 (P388) [µg/mL] | pIC50 [5] |
| --- | --- | --- | --- | --- | --- | --- | --- | --- | --- | --- | --- | --- |
|  | O=c1cc(C2CCCCC2)oc2ccccc12 |  |  |  |  |  |  |  | 5.54 |  |  |  |
|  | Cn1c(/C=C/C(=O)c2ccccc2O)cc(Br)c1Br | 5.08 | 5.90 | 5.50 | 6.48 | 5.60 |  |  |  |  |  |  |
|  | COc1ccc(OC)c(C(=O)/C=C/c2cc(Br)c(Br)[nH]2)c1 | ≤ 4.00 | 6.38 | ≤ 4.00 | 4.91 | 6.66 |  |  |  |  |  |  |
|  | O=c1cc(-c2cc(Br)c(Br)[nH]2)oc2ccccc12 | 5.89 | 6.39 | ≤ 4.00 | ≤ 4.00 | ≤ 4.00 |  |  |  |  |  |  |
|  | Cn1c(-c2cc(-c3ccccc3O)no2)cc(Br)c1Br | 5.61 | ≤ 4.00 | ≤ 4.00 | ≤ 4.00 | ≤ 4.00 |  |  |  |  |  |  |
|  | O=C(/C=C/c1cccc(Cl)c1)c1ccccc1 |  |  |  |  |  |  |  |  | 5.25 (≈ 21.6 µM) |  |  |
|  | Cn1c(-c2cc(-c3ccccc3)no2)cc(Br)c1Br | ≤ 4.00 | ≤ 4.00 | 4.78 | ≤ 4.00 | ≤ 4.00 |  |  |  |  |  |  |
|  | Cn1c(/C=C/C(=O)c2cc(O)ccc2O)cc(Br)c1Br | ≤ 4.00 | 6.42 | ≤ 4.00 | 6.06 | 6.49 |  |  |  |  |  |  |
|  | Cn1c(/C=C/C(=O)c2ccc(O)cc2O)cc(Br)c1Br | 4.92 | 6.08 | 5.45 | 6.74 | 5.79 |  |  |  |  |  |  |
|  | COC(=O)C[C@H]1CNC(=O)c2cc(Br)c(Br)n21 |  |  |  |  |  |  |  |  |  | 30 (≈ 82 µM) |  |
|  | Cn1c(/C=C/C(=O)c2ccc(Cl)cc2Cl)cc(Br)c1Br | ≤ 4.00 | 6.00 | ≤ 4.00 | 4.83 | 5.74 |  |  |  |  |  |  |
|  | O=C(/C=C/c1cc(Br)c(Br)[nH]1)c1ccccc1 | ≤ 4.00 | ≤ 4.00 | ≤ 4.00 | ≤ 4.00 | 4.91 |  |  |  |  |  |  |
|  | Cn1c(/C=C/C(=O)c2ccc(O)cc2)cc(Br)c1Br | ≤ 4.00 | 5.55 | 5.22 | 5.72 | 5.51 |  |  |  |  |  |  |
|  | O=C(/C=C/c1cc(Br)c(Br)[nH]1)c1ccccc1O | ≤ 4.00 | 6.48 | ≤ 4.00 | 5.85 | 5.83 |  |  |  |  |  |  |
|  | COc1cc(-c2cc(-c3cc(OC)c(OC)c(OC)c3)on2)ccc1O |  |  |  |  |  |  |  |  |  |  | 4.63 |
